Values after ≈ are worked out from the molar mass of the structure shown. Read-outs that look alike come from different tables or passages of the source.
Experiments:
Klebsiella X26 = test: MIC, standard agar-dilution assay (Table IX); type: cell-based; details: read-out: MIC
Staphyloccus aureus X1.1 = test: MIC, standard agar-dilution assay (Table IX); type: cell-based, Staphylococcus aureus; details: Staphylococcus aureus, read-out: MIC
[1] = tested on: Streptococcus pyogenes C203; test: MIC, standard agar-dilution assay (Table IX); type: cell-based; details: read-out: MIC
[2] = tested on: Staphylococcus aureus X400; test: MIC, standard agar-dilution assay (Table IX); type: cell-based; details: Staphylococcus aureus X400, Methicillin-resistant strain, read-out: MIC
[3] = tested on: Staphylococcus aureus V41; test: MIC, standard agar-dilution assay (Table IX); type: cell-based; details: Staphylococcus aureus V41, Penicillin-resistant strain, read-out: MIC
[4] = tested on: Haemophilus influenzae C.L.; test: MIC, standard agar-dilution assay (Table IX); type: cell-based; details: Ampicillin-sensitive strain, read-out: MIC
Escherichia coli N10 = test: MIC, standard agar-dilution assay (Table IX); type: cell-based; details: read-out: MIC
Escherichia coli TEM = test: MIC, standard agar-dilution assay (Table IX); type: cell-based; details: read-out: MIC
[5] = tested on: Streptococcus pneumoniae Park I; test: MIC, standard agar-dilution assay (Table IX); type: cell-based; details: Streptococcus pneumoniae Park I; agar-dilution; read-out: MIC
Escherichia coli EC14 = test: MIC, standard agar-dilution assay (Table IX); type: cell-based; details: read-out: MIC
[6] = tested on: Haemophilus influenzae 76; test: MIC, standard agar-dilution assay (Table IX); type: cell-based; details: Haemophilus influenzae 76, Ampicillin-resistant strain, read-out: MIC
[7] = tested on: Staphylococcus aureus S13E; test: MIC, standard agar-dilution assay (Table IX); type: cell-based; details: Staphylococcus aureus, S13E
[8] = tested on: Staphylococcus epidermidis EPI1; test: MIC, standard agar-dilution assay (Table IX); type: cell-based; details: Staphylococcus epidermidis EPI1; agar-dilution; read-out: MIC
[9] = tested on: Streptococcus Group D X66; test: MIC, standard agar-dilution assay (Table IX); type: cell-based; details: read-out: MIC
Streptococcus sp. 19F = test: MIC, broth-dilution microtiter test (Table X); type: cell-based; details: read-out: MIC
Excerpt: (§1) The MIC's in Table X were obtained using conventional broth-dilution microtiter tests.

[10] = tested on: Mycoplasma gallisepticum 29C; test: MIC, broth-dilution microtiter test (Table X); type: cell-based; details: Mycoplasmoides gallisepticum, read-out: MIC
Excerpt: as §1

[11] = tested on: Mycoplasma hyopneumoniae S5972; test: MIC, broth-dilution microtiter test (Table X); type: cell-based; details: Mesomycoplasma hyopneumoniae, read-out: MIC
Excerpt: as §1

[12] = tested on: Staphylococcus aureus 19C; test: MIC, broth-dilution microtiter test (Table X); type: cell-based
Excerpt: as §1

Mycoplasma hyorhinis 29E = test: MIC, broth-dilution microtiter test (Table X); type: cell-based; details: read-out: MIC
Excerpt: as §1

[13] = tested on: Pasteurella multocida 17E; test: MIC, broth-dilution microtiter test (Table X); type: cell-based; details: Bovine isolate, read-out: MIC
Excerpt: as §1

Mycoplasma synoviae 40A = test: MIC, broth-dilution microtiter test (Table X); type: cell-based; details: Mycoplasmopsis synoviae, read-out: MIC
Excerpt: as §1

[14] = tested on: Pasteurella hemolytica 22C; test: MIC, broth-dilution microtiter test (Table X); type: cell-based; details: read-out: MIC
Excerpt: as §1

[15] = tested on: Pasteurella multocida 60A; test: MIC, broth-dilution microtiter test (Table X); type: cell-based; details: Avian isolate, read-out: MIC
Excerpt: as §1

[16] = tested on: Streptococcus Group D 2041; test: MIC, standard agar-dilution assay (Table IX); type: cell-based; details: GROUPD2041, read-out: MIC
[17] = tested on: Staphylococcus epidermidis 222; test: MIC, standard agar-dilution assay (Table IX); type: cell-based; details: read-out: MIC
[18] = tested on: Streptococcus pyogenes C203; test: ED50 in mice experimentally infected with S. pyogenes C203 (Table XI); type: in vivo; details: Streptococcus pyogenes, doses given 1 and 4 hours postinfection, read-out: ED50
Method in brief: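 Mice infected with S. pyogenes C203 received two doses of compound, 1 and 4 h post-infection. ED50 is the dose in mg/kg (per dose, ×2) protecting 50% of animals.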

Pasteurella multocida = test: Pasteurella infection in one-day-old chicks, medicated drinking water (Table XIII); type: in vivo; details: Administered in the available drinking water at 2 g/gal
Procedure: Many of the C-20 modified derivatives of this invention have also shown in vivo antibacterial activity against infections induced by gram-negative bacteria. Tables XII and XIII summarize the results of tests in which illustrative compounds were evaluated against a Pasteurella infection in one-day-old chicks. The compounds were administered parenterally or orally after challenge of the chicks with Pasteurella multocida (0.1 ml of a 10^-4 dilution of a twenty-hour tryptose broth culture of an avian P. multocida given subcutaneously). In these tests, unless indicated otherwise, all non-medicated infected chicks died within 24 hours of Pasteurella challenge. In the tests summarized in Table XII, the compounds were administered by subcutaneous injection at a dosage of 30 mg/kg, 1 and 4 hours post-challenge of the chicks with P. multocida. In the tests summarized in Table XIII the compounds were administered in medicated drinking water (at a level of 2 g/gal) available from 4 to 20 hours prior to challenge of the chicks with P. multocida and during the 3 -day test period.
^a Administered in the available drinking water at a concentration of […]

SMILES | MIC (Streptococcus sp. 19F) [µg/mL] | MIC [10] [µg/mL] | MIC [11] [µg/mL] | MIC [12] [µg/mL] | MIC (Mycoplasma hyorhinis 29E) [µg/mL] | MIC [13] [µg/mL] | MIC (Mycoplasma synoviae 40A) [µg/mL] | MIC [14] [µg/mL] | MIC [15] [µg/mL] | ED50 ([18]; C203, Oral) [mg/kg] | ED50 ([18]; C203, sc, Subcutaneous) [mg/kg] | further results
CCC1OC(=O)CC(O)C(C)C(OC2OC(C)C(O)C(N(C)C)C2O)C(CCN2CCc3ccccc32)CC(C)C(=O)C=CC(C)=CC1COC1OC(C)C(O)C(OC)C1OC (stereo not drawn) [Compound D42] | 0.78 (≈ 0.891 µM) | 0.097 (≈ 0.111 µM) | 0.097 (≈ 0.111 µM) | 0.78 (≈ 0.891 µM) | 3.12 (≈ 3.57 µM) | 12.5 (≈ 14.3 µM) | 0.195 (≈ 0.223 µM) | 50 (≈ 57.1 µM) | 25 (≈ 28.6 µM) |  |  | MIC (Klebsiella X26): 64 µg/mL (≈ 73.1 µM); MIC (Staphyloccus aureus X1.1): 5 µg/mL (≈ 5.71 µM); MIC [1]: 0.5 µg/mL (≈ 0.571 µM); MIC [2]: 0.5 µg/mL (≈ 0.571 µM); MIC [3]: 0.25 µg/mL (≈ 0.286 µM); MIC [4]: 16 µg/mL (≈ 18.3 µM); MIC (Escherichia coli N10): > 128 µg/mL; MIC (Escherichia coli TEM): > 128 µg/mL; MIC [5]: 0.25 µg/mL (≈ 0.286 µM); MIC (Escherichia coli EC14): > 128 µg/mL; MIC [6]: 8 µg/mL (≈ 9.14 µM); MIC [7]: 0.5 µg/mL (≈ 0.571 µM); MIC [8]: 0.5 µg/mL (≈ 0.571 µM); MIC [9]: 2 µg/mL (≈ 2.29 µM); MIC [16]: 2 µg/mL (≈ 2.29 µM); MIC [17]: 0.25 µg/mL (≈ 0.286 µM)
CCC1OC(=O)CC(O)C(C)C(OC2OC(C)C(O)C(N(C)C)C2O)C(CCN2CCC3(CCCCC3)CC2)CC(C)C(=O)C=CC(C)=CC1COC1OC(C)C(O)C(OC)C1OC (stereo not drawn) [Compound D43] | 1.56 (≈ 1.72 µM) | 0.195 (≈ 0.214 µM) | 0.78 (≈ 0.858 µM) | 1.56 (≈ 1.72 µM) | 25 (≈ 27.5 µM) | 6.25 (≈ 6.87 µM) | < 0.048 | 6.25 (≈ 6.87 µM) | 6.25 (≈ 6.87 µM) | 8 | 1.34 | 
CCC1OC(=O)CC(O)C(C)C(OC2OC(C)C(O)C(N(C)C)C2O)C(CCN2CCC3CCCCC32)CC(C)C(=O)C=CC(C)=CC1COC1OC(C)C(O)C(OC)C1OC (stereo not drawn) [Compound D44] | 1.56 (≈ 1.77 µM) | 1.56 (≈ 1.77 µM) | 0.39 (≈ 0.443 µM) | 3.12 (≈ 3.54 µM) | 50 (≈ 56.7 µM) | 12.5 (≈ 14.2 µM) | 0.097 (≈ 0.11 µM) | 12.5 (≈ 14.2 µM) | 12.5 (≈ 14.2 µM) | 37.9 | 0.69 | 
CCC1OC(=O)CC(O)C(C)C(OC2OC(C)C(O)C(N(C)C)C2O)C(CCN2CC3CCC(C3)C2)CC(C)C(=O)C=CC(C)=CC1COC1OC(C)C(O)C(OC)C1OC (stereo not drawn) [Compound D46] | 1.56 (≈ 1.8 µM) | 0.195 (≈ 0.225 µM) | 3.12 (≈ 3.6 µM) | 3.12 (≈ 3.6 µM) | 25 (≈ 28.8 µM) | 6.25 (≈ 7.21 µM) | 1.56 (≈ 1.8 µM) | 6.25 (≈ 7.21 µM) | 12.5 (≈ 14.4 µM) |  |  | Number of Deaths/Number Treated (Pasteurella multocida): 3/10
